The record followed here is ChEMBL document CHEMBL4420072, “Method for screening anti-cancer compounds inhibiting function of TM4SF5 and anti-cancer composition containing chalcone compounds” (2013).

Converted amounts (≈) assume the structure as drawn. The source made the active and inactive calls. The rule behind the calls is not given here.

In one data set the test system is A549. Briefly: Cytotoxicity against human A549 cells assessed as reduction in cell viability by SRB assay. Format: functional. Conditions: read-out: ED50 (the source's name).
For the next data set, the system named is HCT-15. Briefly: Cytotoxicity against human HCT15 cells assessed as reduction in cell viability by SRB assay. Conditions: read-out: ED50 (the source's name). The class given is functional.
For data set [1], the target named is T1, Transmembrane 4 L6 family member 5 (Homo sapiens) (UniProt O14894).
T1 sequence (whole entry): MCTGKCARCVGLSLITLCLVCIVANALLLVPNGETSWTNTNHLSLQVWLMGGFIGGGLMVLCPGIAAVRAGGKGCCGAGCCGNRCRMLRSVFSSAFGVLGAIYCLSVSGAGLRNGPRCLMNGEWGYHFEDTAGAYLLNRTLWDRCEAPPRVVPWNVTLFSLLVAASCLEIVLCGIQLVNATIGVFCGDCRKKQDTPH
In words: Inhibition of TM4SF5 in human SNU449Tp cells assessed as effect on cell morphology at 20 uM incubated for 24 hrs by optical microscopy. Format: cell-based.

The target of data set [2] is T1, Transmembrane 4 L6 family member 5 (Homo sapiens). Briefly: Activation of TM4SF5 in human SNU449Tp cells in multilayer arrangement assessed as stimulation of cell growth at 20 uM incubated for 24 hrs by optical microscopy. Format: cell-based.
The target is the same in data set [3]. In words: Activation of TM4SF5 in human SNU449Tp cells in monolayer arrangement assessed as effect on cell morphology at 20 uM incubated for 24 hrs by optical microscopy. Format: cell-based.
Data set [4] shares this target. Briefly: Activation of TM4SF5 in human SNU449Tp cells in monolayer arrangement assessed as stimulation of cell growth at 20 uM incubated for 24 hrs by optical microscopy. The class given is cell-based.
Data set [5] shares this target. Briefly: Inhibition of TM4SF5 in human SNU449Tp cells assessed as reduction in MMP9 activity gel at 20 uM incubated for 24 hrs followed by medium exchange with serum-free medium and further incubated for 18 hrs by zymography. The class given is cell-based.
Data set [6] can be described thus: Growth inhibition of TM4SF5 deficient human SNU449Cp cells assessed as reduction in cell number at 5 to 40 uM incubated up to 2 days. As to conditions: 48 h.
Data set [7] addresses T1, Transmembrane 4 L6 family member 5 (Homo sapiens). In words: Inhibition of TM4SF5 in human SNU449Tp cells assessed as induction of return of elongated cell shape to polygonal shape by DAPI staining based assay.
For data set [8] the target is unchanged. In words: Inhibition of TM4SF5 in human SNU449Tp cells assessed as restoration of reduced RhoA activity. Format: cell-based.
The target is the same in data set [9]. Briefly: Inhibition of TM4SF5 in human SNU449Tp cells assessed as reduction in MMP2 activity gel at 20 uM incubated for 24 hrs followed by medium exchange with serum-free medium and further incubated for 18 hrs by zymography. Format: cell-based.
Data set [10] shares this target. In words: Inhibition of TM4SF5 in human SNU449Tp cells assessed as reduction in pY77 FAK expression by Western blotting analysis. The class given is cell-based.
Data set [11] has the same target. In words: Inhibition of TM4SF5 in human SNU449Tp cells assessed as increase in sensitivity of N-linked glycosylated region of TM4SF5 to PNGase F. Format: cell-based.
For data set [12] the target is unchanged. In words: Inhibition of TM4SF5 in human HuH7 cells assessed as reduction in cell number at 1 to 20 ug/ml incubated up to 3 days. Format: cell-based.
Data set [13] has the same target. Briefly: Inhibition of TM4SF5 in human SNU449Tp cells assessed as reduction in pS10 p27Kip1 expression by Western blotting analysis. Format: cell-based.
For data set [14] the target is unchanged. Briefly: Inhibition of TM4SF5 in human SNU449Tp cells assessed as reduction in cell migration at 20 uM incubated for 18 hrs by Transwell chamber based assay.
The target is the same in data set [15]. Briefly: Inhibition of TM4SF5 in human SNU449Tp cells assessed as reduction in p27Kip1 expression by Western blotting analysis. The class given is cell-based.
The target is the same in data set [16]. In words: Inhibition of TM4SF5 in human SNU449Tp cells assessed as reduction in alpha-SMA expression by Western blotting analysis. Format: cell-based.
Data set [17] has the same target. In words: Inhibition of TM4SF5 in human SNU449Tp cells assessed as restoration of cell-cell contact at 20 uM by E-cadherin and beta-catenin detection based immunofluorescent staining.
Data set [18] shares this target. Briefly: Inhibition of TM4SF5 in human SNU368 cells assessed as reduction in cell number at 1 to 20 ug/ml incubated up to 3 days. Format: cell-based.
Data set [19] has the same target. Briefly: Inhibition of TM4SF5 in human SNU449Tp cells assessed as inhibition of S-phase progression at 20 uM followed by BrdU addition and incubated for 24 hrs by immunofluorescent staining. The class given is cell-based.
The target is the same in data set [20]. In words: Inhibition of TM4SF5 in human SNU449Tp cells assessed as reduction in cytosolic p27Kip1 expression by immunofluorescent staining. The class given is cell-based.
The subject of a further data set is SNU-398. In words: Growth inhibition of TM4SF5 deficient human SNU398 cells assessed as reduction in cell number at 1 to 20 ug/ml incubated up to 3 days. The class given is cell-based. Conditions: snu-398, 72 h.
In data set [21] the target is T1, Transmembrane 4 L6 family member 5 (Homo sapiens). In words: Inhibition of TM4SF5 in human HepG2 cells assessed as reduction in cell number at 1 to 20 ug/ml incubated up to 3 days. The class given is cell-based.
Data set [22] has the same target. In words: Inhibition of TM4SF5 in human SNU449Tp cells assessed as reduction in cell invasion into Matrigel gel matrix at 20 uM incubated for 24 hrs. Format: cell-based.
The target is the same in data set [23]. Briefly: Inhibition of TM4SF5 in human SNU449Tp cells assessed as reduction in cell invasion into collagen gel matrix at 20 uM incubated for 18 hrs. The class given is cell-based.
The subject of another data set is PC-3. In words: Cytotoxicity against human PC3 cells assessed as reduction in cell viability by SRB assay. Format: functional. Conditions: read-out: ED50 (the source's name).

As for `Cc1ccc(S(=O)(=O)Oc2ccc(C(=O)/C=C/c3ccc(O)cc3O)cc2)cc1`, the results for the EC50 in the data set with A549 and in the data set on HCT-15 were 10 µg/mL (≈ 24.4 µM) and 8 µg/mL (≈ 19.5 µM), respectively.
`O=C(/C=C/c1ccc(O)cc1)c1ccc(O)cc1`: in data set [1], the “cell morphology effect (active/not active)” value is “inactive”. Moreover, the outcome in [2] was inactive. Further, the outcome in data set [3] and in data set [4] was Active.
`Nc1ccc(C(=O)/C=C/c2ccc(O)cc2)cc1`: in [1], the “cell morphology effect (active/not active)” value is “inactive”. In data set [2], the outcome was inactive. Also, the result in data set [3] and in data set [4] was Active.
On to `Cc1ccc(S(=O)(=O)Nc2ccc(C(=O)/C=C/c3ccc(O)cc3)cc2)cc1`, for which the inhibition entry in data set [5], in data set [7], in data set [8], in data set [9], in [10] and in data set [11] was “Active” in each case. Further, the inhibition entry in [12], in data set [13], in [14], in data set [15], in data set [16] and in data set [17] was “Active” each time. Further, the inhibition result in data set [18], in [19], in [20], in data set [21], in data set [22] and in data set [23] was “Active” in each case. The “growth inhibition (GI)” value (in data set [6]; in the data set with SNU-398) was “Non-Toxic” in each case. In [1], the “cell morphology effect (active/not active)” value is “Active”.
Turning to `COc1ccc(C(=O)/C=C/c2ccc(O)cc2)cc1`, the “cell morphology effect (active/not active)” value in data set [1] is “inactive”. Moreover, the result in [2] was inactive. Moreover, the result in data set [3] and in [4] was Active.
With `O=C(/C=C/c1ccc(O)c(O)c1)c1ccc(OS(=O)(=O)c2cccc(F)c2)cc1`, the EC50 in the data set with PC-3 is 8 µg/mL (≈ 19.3 µM); with HCT-15, 7 µg/mL (≈ 16.9 µM).
